“And” between values parts separate entries of the source, which are not always exact repeats. Equal entries are not always repeated.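 Method: 48-hour compound exposure of cells in 96-well plates, five concentrations, linear interpolation of endpoints. Here, GI50 denotes the concentration required for 50% inhibition of growth. TGI: total growth inhibition.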
Experiments:
Test in all cases: DTP human tumour cell line panel, 48 h
ACHN renal = tested on: ACHN renal
COLO 205 colon = tested on: COLO 205 colon
HCC-2998 colon = tested on: HCC-2998 colon
K-562 leukemia = tested on: K-562 leukemia
MALME-3M melanoma = tested on: MALME-3M melanoma
OVCAR-4 ovarian = tested on: OVCAR-4 ovarian
SF-539 CNS = tested on: SF-539 CNS
SK-OV-3 ovarian = tested on: SK-OV-3 ovarian
TK-10 renal = tested on: TK-10 renal
HS 578T breast = tested on: HS 578T breast

SMILES	TGI (ACHN renal)	TGI (COLO 205 colon)	TGI (HCC-2998 colon)	TGI (K-562 leukemia)	TGI (MALME-3M melanoma)	TGI (OVCAR-4 ovarian)	TGI (SF-539 CNS)	TGI (SK-OV-3 ovarian)	TGI (TK-10 renal)	GI50 (HCC-2998 colon)	GI50 (HS 578T breast)	TGI (HS 578T breast)	GI50 (K-562 leukemia)	GI50 (MALME-3M melanoma)	GI50 (SF-539 CNS)	GI50 (ACHN renal)	GI50 (OVCAR-4 ovarian)	GI50 (TK-10 renal)	GI50 (COLO 205 colon)	GI50 (SK-OV-3 ovarian)
COc1ccccc1NC(=O)C1=C(C)NC(C)=C(C(=O)Nc2ccccc2OC)C1c1cccc2c1OCO2	> 100 µM	> 100 µM	> 100 µM	> 100 µM	> 100 µM	> 100 µM	> 100 µM	> 100 µM	> 100 µM	–	–	–	–	–	–	–	–	–	–	–
COc1cc2c(c(OC)c1OC)-c1ccc(SC)c(=O)cc1C(CC(=O)Oc1cccc(C#N)c1)C2 (centres undefined)	> 100 µM	3.41 µM	1.59 µM	–	> 100 µM	> 100 µM	0.602 µM	> 100 µM	–	–	–	–	–	–	–	–	–	–	–	–
N/C(=N\c1nc2ccccc2s1)NC(=O)Nc1cccc2ccccc12	–	–	> 100 µM	> 100 µM	> 100 µM	–	0.768 µM	–	–	0.741 µM	0.302 µM	5.41 µM	0.0765 µM	1.24 µM	0.242 µM	–	–	–	–	–
CCOC(=O)[C@H]1Nc2ccc(Cl)cc2[C@H]2c3ccccc3O[C@H]21	> 100 µM	> 100 µM	> 100 µM	> 100 µM	–	> 100 µM	> 100 µM	–	> 100 µM	–	–	–	–	–	–	–	–	–	–	–
COC(=O)C1=Cc2c(cc(OC)c(OC)c2OC)[C@H](c2ccc(OC)c(OC)c2OC)C1C(=O)OC (some centres undefined)	> 100 µM	> 100 µM	> 100 µM	> 100 µM	> 100 µM	> 100 µM	> 100 µM	> 100 µM	> 100 µM	–	–	–	–	–	–	–	–	–	–	–
Cc1cc2c(cc1Br)C1(C)CCC(C)C1(C)O2 (centres undefined)	> 100 µM	29.8 µM	> 100 µM	37.6 µM	42.1 µM	> 100 µM	> 100 µM	> 100 µM	> 100 µM	–	–	–	–	–	–	–	–	–	–	–
Clc1cc(Cl)cc(Nc2nc3ccccc3nc2-c2cccs2)c1	60.3 µM	32.9 µM	> 100 µM	–	> 100 µM	–	> 100 µM	71.1 µM	75.6 µM	–	–	–	–	–	–	–	–	–	–	–
CN(C)S(=O)(=O)c1ccc(Nc2ccc(O)c3c2C(=O)c2c([N+](=O)[O-])ccc(O)c2C3=O)cc1	> 100 µM	> 100 µM	–	> 100 µM	> 100 µM	> 100 µM	–	> 100 µM	> 100 µM	–	–	> 100 µM	–	–	–	–	–	–	–	–
COc1ccc(-c2nc3sc4c(c3c(=O)[nH]2)CCCC4)c2ccccc12	–	–	79.1 µM	> 100 µM	9.03 µM	–	0.544 µM and 0.0746 µM	3.74 µM	–	–	–	0.093 µM	–	0.749 µM	0.211 µM and 0.0213 µM	0.755 µM	2.23 µM	3.53 µM	–	–
COc1cc2c3c(n(C)c(=O)c2cc1OC)-c1cc2c(cc1/C3=C/[C@H](N)CCCCN)OCO2	3.16 µM	> 19.8 µM	–	> 100 µM	0.7 µM	7.92 µM	4.62 µM	> 24.7 µM	21.5 µM	–	2.52 µM	17.4 µM	4.68 µM	0.0491 µM	0.742 µM	0.637 µM	2.27 µM	3.95 µM	1.18 µM	1.4 µM
C[Si]12OCCCN(CCO1)CCO2	> 100 µM	> 100 µM	> 100 µM	> 100 µM	> 100 µM	–	> 100 µM	> 100 µM	> 100 µM	–	–	–	–	–	–	–	–	–	–	–
O=C(O)CCCNS(=O)(=O)c1ccc2ccccc2c1	> 100 µM	> 100 µM	> 100 µM	> 100 µM	> 100 µM	> 100 µM	> 100 µM	> 100 µM	> 100 µM	–	–	–	–	–	–	–	–	–	–	–
COc1cc2c3c(n(CCCNCCNCCCN)c(=O)c2cc1OC)-c1cc2c(cc1C3=O)OCO2	2.6 µM	17.9 µM	–	> 100 µM	–	19.9 µM	23.6 µM	> 100 µM	27 µM	–	1.38 µM	7.93 µM	3.43 µM	–	8.55 µM	0.18 µM	4.64 µM	7.92 µM	3.57 µM	8.08 µM
CC1=CC2CC(C)C1(C)CCc1ccoc12 (centres undefined)	> 100 µM	> 100 µM	> 100 µM	> 100 µM	> 100 µM	> 100 µM	> 100 µM	> 100 µM	> 100 µM	–	–	–	–	–	–	–	–	–	–	–
CN1C(=O)C(c2c[nH]c3ccccc23)=C(c2c(-c3c[nH]c4ccccc34)[nH]c3ccccc23)C1=O	13.9 µM	7.89 µM	–	> 100 µM	–	> 100 µM	3.67 µM	13 µM	4.85 µM	–	3 µM	13.6 µM	3.07 µM	–	1.81 µM	3.4 µM	15.5 µM	1.66 µM	2.8 µM	3.14 µM
NC1=C(Cl)C(=O)c2ccccc2C1=O	22.7 µM	30.8 µM	24.4 µM	39 µM	3.13 µM	15.9 µM	20.8 µM	33.1 µM	49 µM	–	–	–	–	–	–	–	–	–	–	–
CC(=O)O[C@H]1CC[C@@]2(C)C(=CC[C@@H]3C2CC[C@]2(C)Nc4[nH]ncc4CC32)C1 (some centres undefined)	> 100 µM	–	> 100 µM	52.8 µM	86.1 µM	37.2 µM	40.4 µM	> 100 µM	> 100 µM	–	–	–	–	–	–	–	–	–	–	–
c1cncc(CNc2ncn[nH]2)c1	> 100 µM	> 100 µM	–	> 100 µM	> 100 µM	> 100 µM	> 100 µM	> 100 µM	> 100 µM	–	–	> 100 µM	–	–	–	–	–	–	–	–
O=C(O)c1ccc(C2C3C=CC(C3)C2[N+](=O)[O-])cc1 (centres undefined)	–	> 100 µM	> 100 µM	> 100 µM	> 100 µM	–	> 100 µM	> 100 µM	> 100 µM	–	–	–	–	–	–	–	–	–	–	–
CC1CC2(CCC1OCc1ccccc1)OCCO2 (centres undefined)	–	> 100 µM	> 100 µM	> 100 µM	> 100 µM	> 100 µM	> 100 µM	> 100 µM	> 100 µM	–	–	–	–	–	–	–	–	–	–	–
C=C1C(=O)O[C@H]2C[C@@H]1CCC1(C)OC1CC/C(C)=C/CC[C@H]2C (some centres undefined)	> 100 µM	36.2 µM	33.1 µM	41.2 µM	–	–	50.6 µM	37.1 µM	31.8 µM	18.9 µM	24 µM	61 µM	21.6 µM	–	28.8 µM	> 100 µM	–	17.6 µM	15.6 µM	19.3 µM
CN(CCN(C)C(=O)CCOS(C)(=O)=O)C(=O)CCOS(C)(=O)=O	> 100 µM	> 100 µM	> 100 µM	> 100 µM	> 100 µM	> 100 µM	> 100 µM	> 100 µM	> 100 µM	–	–	–	–	–	–	–	–	–	–	–

From PubChem BioAssay (NCI)
